Each structure is given as a SMILES string.

Sequence of IDH1 R132H (O75874 whole entry R132H): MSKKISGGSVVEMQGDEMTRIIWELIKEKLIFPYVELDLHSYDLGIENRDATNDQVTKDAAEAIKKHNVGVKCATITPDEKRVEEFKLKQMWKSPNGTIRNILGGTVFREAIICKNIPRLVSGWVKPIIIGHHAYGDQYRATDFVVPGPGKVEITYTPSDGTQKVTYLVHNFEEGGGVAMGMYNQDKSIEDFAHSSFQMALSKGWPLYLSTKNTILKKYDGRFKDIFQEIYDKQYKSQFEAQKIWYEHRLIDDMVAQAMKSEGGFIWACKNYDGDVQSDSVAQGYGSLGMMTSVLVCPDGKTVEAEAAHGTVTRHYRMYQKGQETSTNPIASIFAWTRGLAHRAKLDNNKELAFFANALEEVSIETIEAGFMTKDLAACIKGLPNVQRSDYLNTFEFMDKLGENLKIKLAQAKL

The first test addresses IDH1 R132H (Homo sapiens, UniProt O75874, R132H). Nature of the test: Assay for IDH1 R132H inhibitors (NADPH/aKG, resazurin detection). Type of test: biochemical. The note with it: Table 3; enzyme assay, 50 minutes at room temperature; read-out: IC50 (IDH1 R132H Inhibition). As for the experimental part:
Assays were conducted in a volume of 76 μl assay buffer (150 mM NaCl, 10 mM MgCl2, 20 mM Tris pH 7.5, 0.03% bovine serum albumin) as follows in a standard 384-well plate: To 25 ul of substrate mix (8 uM NADPH, 2 mM aKG), 1 μl of test compound was added in DMSO. The plate was centrifuged briefly, and then 25 μl of enzyme mix was added (0.2 μg/ml IDH1 R132H) followed by a brief centrifugation and shake at 100 RPM. The reaction was incubated for 50 minutes at room temperature, then 25 μl of detection mix (30 μM resazurin, […]) was added and the mixture further incubated for 5 minutes at room temperature. The conversion of resazurin to resorufin was detected by fluorescent spectroscopy at Ex544 Em590 c/o 590.
(In general: The colour change of resazurin is a common sign of viable cells or microbes.)
As to `CC(C)c1nc(N2CCN(C(=O)c3ccoc3)C(c3ccccc3)C2)c(C#N)cc1-c1ccccc1` (stereo not drawn) [Compound 153, 2-(4-(furan-3-carbonyl)-3-phenylpiperazin-1-yl)-6-isopropyl-5-phenylnicotinonitrile], the IC50 was in the range of 5000 to 15000 nM. On to `COCCC(=O)N1CCN(c2nc(C(C)C)c(-c3ccc(C)c(C)c3)cc2C#N)C[C@H]1C` [Compound 220, (R)-5-(3,4-dimethylphenyl)-6-isopropyl-2-(4-(3-methoxypropanoyl)-3-methylpiperazin-1-yl)nicotinonitrile], for which the IC50 lay in the range of 1000 to 5000 nM.

Regarding `COCCC(=O)N1CCN(c2nc(C(C)C)c(-c3cccc(Cl)c3)cc2C#N)C[C@H]1C` [Compound 218, (R)-5-(3-chlorophenyl)-6-isopropyl-2-(4-(3-methoxypropanoyl)-3-methylpiperazin-1-yl)nicotinonitrile], the IC50 was in the range of 1000 to 5000 nM.

For `COCCC(=O)N1CCN(c2nc(C3CC3)c(-c3ccsc3)c(C)c2C#N)C[C@H]1C` [Compound 262, (R)-6-cyclopropyl-2-(4-(3-methoxypropanoyl)-3-methylpiperazin-1-yl)-4-methyl-5-(thiophen-3-yl)nicotinonitrile], the IC50 was at most 1000 nM. `COCCC(=O)N1CCN(c2nc(C(C)C)c(-c3ccc(Cl)cc3)cc2C#N)C[C@H]1C` [Compound 215, (R)-5-(4-chlorophenyl)-6-isopropyl-2-(4-(3-methoxypropanoyl)-3-methylpiperazin-1-yl)nicotinonitrile]: the IC50 is 1000 to 5000 nM. Regarding `CC(C)c1cc(-c2cccc(F)c2)c(C#N)c(N2CCN(C(=O)c3c[nH]c4ccccc34)CC2)n1` [Compound 116, 2-(4-(1H-indole-3-carbonyl)piperazin-1-yl)-4-(3-fluorophenyl)-6-isopropylnicotinonitrile], the IC50 was 5000 to 15000 nM. In the case of `CC1CN(c2nc(-c3ccccc3)c(-c3ccccc3)cc2C#N)CCN1C(=O)c1ccco1` (stereo not drawn) [Compound 117, 2-(4-(furan-2-carbonyl)-3-methylpiperazin-1-yl)-5,6-diphenylnicotinonitrile], the IC50 fell in the range of 5000 to 15000 nM. Take `CC(C)c1nc(N2CCN(C(=O)c3ccoc3)[C@H](C)C2)c(C#N)cc1-c1ccc(C(F)(F)F)cc1` [Compound 187, (R)-2-(4-(furan-3-carbonyl)-3-methylpiperazin-1-yl)-6-isopropyl-5-(4-(trifluoromethyl)phenyl)nicotinonitrile]: the IC50 was at most 1000 nM. Turning to `COCCC(=O)N1CCN(c2nc(C3CC3)c(-c3cccc(C)c3)cc2C#N)C[C@H]1C` [Compound 225, (R)-6-cyclopropyl-2-(4-(3-methoxypropanoyl)-3-methylpiperazin-1-yl)-5-m-tolylnicotinonitrile], the IC50 was at most 1000 nM. Turning to `CC(C)c1nc(N2CCN(C(=O)c3ccco3)[C@H](C)C2)c(C#N)cc1-c1ccc(C(F)(F)F)cc1` [Compound 185, (R)-2-(4-(furan-2-carbonyl)-3-methylpiperazin-1-yl)-6-isopropyl-5-(4-(trifluoromethyl)phenyl) nicotinonitrile], the IC50 lay in the range of 1000 to 5000 nM.

For `CC(C)c1cc(-c2ccccc2)c(C#N)c(N2C[C@@H](C)N(C(=O)c3ccco3)[C@@H](C)C2)n1` [Compound 102, 2-((3S,5R)-4-(furan-2-carbonyl)-3,5-dimethylpiperazin-4-yl)-6-isopropyl-4-phenylnicotinonitrile], the IC50 was 1000 to 5000 nM. Regarding `COCCC(=O)N1CCN(c2nc(C(C)C)c(-c3cncnc3)cc2C#N)C[C@H]1C` [Compound 210, (R)-6-isopropyl-2-(4-(3-methoxypropanoyl)-3-methylpiperazin-1-yl)-5-0γ(pyrimidin-5-yl)nicotinonitrile], the IC50 was in the range of 5000 to 15000 nM. Take `CC(C)c1cc(-c2ccccc2)c(C#N)c(N2C[C@@H](C)N(C(=O)c3ccccc3)[C@@H](C)C2)n1` [Compound 101, 2-((3S,5R)-4-benzoyl-3,5-dimethylpiperazin-1-yl)-6-isopropyl-4-phenylnicotinonitrile]: the IC50 lay within 1000 to 5000 nM. For `COCCC(=O)N1CCN(c2nc(C(C)C)c(-c3ccc(OC)c(OC)c3)cc2C#N)C[C@H]1C` [Compound 223, (R)-5-(3,4-dimethoxyphenyl)-6-isopropyl-2-(4-(3-methoxypropanoyl)-3-methylpiperazin-1-yl)nicotinonitr-ile], the IC50 was at most 1000 nM.

Still in this test, the particulars now being: enzyme assay of Example 12; read-out: IDH1R132H IC50.
Consider `CCO[C@H]1C[C@@H]1C(=O)N1CCN(c2nc(C3CC3)c(-c3ccc(F)cc3)cc2C#N)C[C@H]1C1CC1` [Compound 548, 6-cyclopropyl-2-((R)-3-cyclopropyl-4-((1S,2S)-2-ethoxycyclopropanecarbonyl)piperazin-1-yl)-5-(4-fluorophenyl)nicotinonitrile], for which the IC50 was in the range of 500 to 1000 nM. Take `COCCC(=O)N1CCN(c2nc(C3CC3)c(-c3cccc(C(N)=O)c3)cc2C#N)C[C@H]1C` [Compound 305, (R)-3-(5-cyano-2-cyclopropyl-6-(4-(3-methoxypropanoyl)-3-methylpiperazin-1-yl)pyridin-3-yl)benzamide]: the IC50 was 500 to 1000 nM. With `COCCC(=O)N1CCN(c2nc(C3CC3)c(-c3csc(NC(=O)OC(C)(C)C)n3)cc2C#N)C[C@H]1C` [Compound 395, (R)-(4-{5-cyano-2-cyclopropyl-6-[4-(3-methoxy-propionyl)-3-methyl-piperazin-1-yl]-pyridin-3-yl}-thiazol-2-yl)-carbamic acid tert-butyl ester], the half-maximal inhibitory concentration (IC50) is 500 to 1000 nM. The same measure, in the same setting: under `COCCC(=O)N1CCN(c2nc(C3CC3)c(-c3ccccc3CCOC)cc2C#N)C[C@H]1C` [Compound 338, (R)-6-cyclopropyl-5-[2-(2-methoxy-ethyl)-phenyl]-2-[4-(3-methoxy-propionyl)-3-methyl-piperazin-1-yl]-nicotinonitrile] stands under 500 nM; under `N#Cc1cc(-c2cccc3nccnc23)c(C2CC2)nc1N1CCN(C(=O)C2CC2)[C@H](C2CC2)C1` [Compound 531, (R)-2-(4-(cyclopropanecarbonyl)-3-cyclopropylpiperazin-1-yl)-6-cyclopropyl-5-(quinoxalin-5-yl)nicotinonitrile], under 500 nM; under `C=Cc1cc(-c2cc(C#N)c(N3CCN(C(=O)CO)[C@H](C)C3)nc2C2CC2)ccn1` [Compound 632, (R)-2-cyclopropyl-6-(4-(2-hydroxyacetyl)-3-methylpiperazin-1-yl)-2′-vinyl-3,4′-bipyridine-5-carbonitrile], under 500 nM.

For the molecule `COC(=O)N1CCN(c2nc(C3CC3)c(-c3cccc4cnccc34)cc2C#N)C[C@H]1C1CC1` [Compound 489, (R)-methyl 4-(3-cyano-6-cyclopropyl-5-(isoquinolin-5-yl)pyridin-2-yl)-2-cyclopropylpiperazine-1 carboxylate], the IC50 is 500 to 1000 nM. Turning to `N#Cc1cc(-c2ccc3c(c2)C(=O)C(=O)N3)c(C2CC2)nc1N1CCN(C(=O)C2CC2)[C@H](C2CC2)C1` [Compound 504, (R)-2-(4-(cyclopropanecarbonyl)-3-cyclopropylpiperazin-1-yl)-6-cyclopropyl-5-(2,3-dioxoindolin-5-yl)nicotinonitrile], the IC50 lay in the range of 500 to 1000 nM.

Turning to `N#Cc1cc(Cc2ccnc(Cl)c2)c(C2CC2)nc1N1CCN(C(=O)C2CC2)[C@H](C2CC2)C1` [Compound 685, (R)-5-((2-chloropyridin-4-yl)methyl)-2-(4-(cyclopropanecarbonyl)-3-cyclopropylpiperazin-1-yl)-6-cyclopropylnicotinonitrile], the IC50 lay within 1000 to 10000 nM. On the same count and under the same terms, next, `C=Cc1cnc2c(-c3cc(C#N)c(N4CCN(C(=O)/C=C/CCO)[C@H](C(C)C)C4)nc3C3CC3)cccc2n1` [Compound 790, (R)-6-cyclopropyl-2-(4-(5-hydroxypent-2-enoyl)-3-isopropylpiperazin-1-yl)-5-(2-vinylquinoxalin-5-yl)nicotinonitrile]: under 500 nM. The same measure, in the same setting: under `N#Cc1cc(-c2ccnc(N)n2)c(C2CC2)nc1N1CCN(C(=O)CC(F)(F)F)[C@H](C2CC2)C1` [Compound 534] stands under 500 nM. In the case of `COCCC(=O)N1CCN(c2nc(C3CC3)c(-c3ccc(C#N)nc3)cc2C#N)C[C@H]1C` [Compound 584, (R)-2-cyclopropyl-6-(4-(3-methoxypropanoyl)-3-methylpiperazin-1-yl)-3,3′-bipyridine-5,6′-dicarbonitrile], the IC50 lay in the range of 500 to 1000 nM.

On to `COCCC(=O)N1CCN(c2nc(C3CC3)c(OC(C)c3ccc(Cl)cc3)cc2C#N)C[C@H]1C` (stereo partly drawn) [Compound 311, 5-(1-(4-chlorophenyl)ethoxy)-6-cyclopropyl-2-((R)-4-(3-methoxypropanoyl)-3-methylpiperazin-1-yl)nicotinonitrile], for which the IC50 lay in the range of 500 to 1000 nM. Same read-out and setting: next, `COCCC(=O)N1CCN(c2nc(C3CC3)c(-c3cnc(OC)c4ccccc34)cc2C#N)C[C@H]1C` [Compound 474, (R)-6-cyclopropyl-5-(1-methoxy-isoquinolin-4-yl)-2-[4-(3-methoxy-propionyl)-3-methyl-piperazin-1-yl]-nicotinonitrile]: under 500 nM; `COCCC(=O)N1CCN(c2nc(C3CC3)c(-c3cccc(CC(=O)OC)c3)cc2C#N)C[C@H]1C` [Compound 291, (R)-methyl 2-(3-(5-cyano-2-cyclopropyl-6-(4-(3-methoxypropanoyl)-3-methylpiperazin-1-yl)pyridin-3-yl)phenyl)acetate]: 500 to 1000 nM.

With `C[C@@H]1CN(c2nc(C3CC3)c(Nc3ccnc(Cl)c3)cc2C#N)CCN1C(=O)CCO` [Compound 661, (R)-5-((2-chloropyridin-4-yl)amino)-6-cyclopropyl-2-(4-(3-hydroxypropanoyl)-3-methylpiperazin-1-yl)nicotinonitrile], the IC50 was under 500 nM.

By IC50 is commonly meant the concentration needed to halve the response being measured.

Source of the values: patent publication US9856279B2 (AGIOS PHARMACEUTICALS, INC, priority 2011, dated 2018).
